Entries after “also recorded” stand apart in the source; their conditions may differ.
Columns and labels:
Format in all cases: cell-based, Mouse
[1] = tested on: C2C12 cells differentiated into myotube cells; experiment: Dexamethasone-induced myotube atrophy in C2C12 cells, myotube cell diameter (Example 1-2, also used for Examples 2 and 3)
Procedure: (§1) Mouse myoblast cell line C2C12 cells (RIKEN BRC, RCB0987) were suspended in growth medium (Dulbecco's modified Eagle's Medium supplemented with 10% FBS, 100 units/ml of penicillin, 100 μg/ml of streptomycin), seeded in 24-well plates, and incubated in a 37° C., 5% CO2 incubator until the cell density reached 70-90%.
The growth medium was removed, and exchanged to a differentiation induction medium (Dulbecco's modified Eagle's Medium supplemented with 2% adult bovine serum, 100 units/ml of penicillin, 100 μg/ml of streptomycin). The cells were cultured for 4 days while exchanging the medium once every 2 days and differentiated into myotube cells. The medium was removed and exchanged to the following media: • (1) Differentiation induction medium containing no dexamethasone [Dex (−)]; • (2) Differentiation induction medium containing 100 μM dexamethasone [Dex (+)]; • (3) Differentiation induction medium containing 100 μM dexamethasone and a certain amount of disodium cytidylate [Dex (+), a certain amount of CMP]; • (4) Differentiation induction medium containing 100 μM dexamethasone and a certain amount of cytidine [Dex (+), a certain amount of cytidine (which may be abbreviated as “Cyd”)]; • (5) Differentiation induction medium containing 100 μM dexamethasone and a certain amount of disodium uridylate [Dex (+), certain amount of UMP]; and • (6) Differentiation induction medium containing 100 μM dexamethasone and a certain amount of uridine [Dex (+), certain amount of uridine].
After culturing the cells for 3 days, five positions near the center of the wells were photographed at magnifications of 100. Using ImageJ image analysis software, the diameters of 10 myotube cells per a photograph were measured in the order from the myotube cell having the largest diameter, and an average of 50 cells was determined to be the diameter of the myotube cell in each well. Statistical analysis was performed by t-test or Dunnett's multiple comparison test using the differentiation induction medium treatment group supplemented only with 100 μM dexamethasone as a control. The threshold for statistical significance was set to 5%.
Cytidylic acid and uridylic were added to the medium at the concentrations shown in FIG. 7 so that the total concentration of cytidylic acid and uridylic acid was 1000 μM.
In Example 2, the total concentration of cytidylic acid/uridylic acid added to the medium was adjusted to 1000 μM and a ratio of the cytidylic acid/uridylic acid was varied.
Similarly, the effect of the combination of cytidine and uridine were also evaluated.

MuRF1 = MuRF1 mRNA expression in dexamethasone-treated C2C12 myotube cells (Example 4); details: 48 hours pretreatment, then 1 μM dexamethasone plus test substance 24 hours, corrected by β-actin
Procedure: (§2) Mouse myoblast cell line C2C12 cells were suspended in growth medium, seeded in 24-well plates, and incubated in a 37° C., 5% C02 incubator until the cell density reached 70-90%. The growth medium was removed, and exchanged to a differentiation induction medium. The cells were cultured for 6 days while exchanging the medium once every 2 days and differentiated into myotube cells. The medium was removed and exchanged to a differentiation induction medium or a differentiation induction medium containing a test substance. After 48 hours, the medium was removed and replaced with a differentiation induction medium, a differentiation induction medium supplemented only with 1 μM dexamethasone, or a medium supplemented with 1 μM dexamethasone and test substances (a certain amount of UMP (disodium uridylate), a certain amount of Urd (uridine), and […]).
(§3) After 24 hours, the medium was removed and total RNA was extracted from the cells using RNeasy Mini kit (QIAGEN) or NucleoSpin RNA (Takara Bio).
(§4) Using the total RNA as a template, a reverse transcription reaction solution was prepared using the ReverTra Ace(R) qPCR RT Kit (Toyobo). […] Analysis was performed by relative quantification, and mRNA expression levels were corrected using the β-actin mRNA expression level as an endogenous control. […]

Atrogin-1 = Atrogin-1 mRNA expression in dexamethasone-treated C2C12 myotube cells (Example 4); details: 48 hours pretreatment, then 1 μM dexamethasone plus test substance 24 hours, corrected by β-actin
Procedure: as §2, §3, §4

[2] = tested on: C2C12 cells differentiated into myotube cells; experiment: Dexamethasone-induced myotube atrophy in C2C12 cells, myotube cell diameter (Example 1-1); details: 100 μM dexamethasone plus 2 mM or 5 mM disodium uridylate, 48 hours, vs Dex (+), UMP (−)
Procedure: as §1, with “C02” for “CO2”
The growth medium was removed, and exchanged to a differentiation induction medium (Dulbecco's modified Eagle's Medium supplemented with 2% adult bovine serum, 100 units/ml of penicillin, 100 μg/ml of streptomycin). The cells were cultured for 4 days while exchanging the medium once every 2 days and differentiated into myotube cells. […]
After 24 hours, the medium was changed again. […] Using ImageJ image analysis software, the diameters of 10 myotube cells per a photograph were measured in the order from the myotube cell having the largest diameter, and an average of 50 cells was determined to be the diameter of the myotube cell in each well. […]

[3] = Example 1-2, 100 μM dexamethasone plus a certain amount of test substance, 3 days, vs Dex (+) only
[4] = Example 3, 100 μM dexamethasone plus single test substance

Structure (SMILES)	myotube cell diameter [1, 3]	myotube cell diameter [1, 4]	mRNA expression level of MuRF1 (MuRF1)	mRNA expression level of Atrogin-1 (Atrogin-1)	myotube cell diameter [2]
Nc1ccn([C@@H]2O[C@H](CO)[C@@H](O)[C@H]2O)c(=O)n1 [cytidine]	significantly increased; also recorded: myotube cell atrophy inhibiting effect	significantly increased			
O=c1ccn([C@@H]2O[C@H](CO)[C@@H](O)[C@H]2O)c(=O)[nH]1 [uridine]	significantly increased; also recorded: myotube cell atrophy inhibiting effect	significantly increased	decreased; also recorded: excellent inhibiting effect	decreased; also recorded: excellent inhibiting effect	
Nc1ccn([C@@H]2O[C@H](COP(=O)(O)O)[C@@H](O)[C@H]2O)c(=O)n1 [cytidylic acid]	significantly increased; also recorded: myotube cell atrophy inhibiting effect	significantly increased			
O=c1ccn([C@@H]2O[C@H](COP(=O)(O)O)[C@@H](O)[C@H]2O)c(=O)[nH]1 [uridylic acid]	significantly increased; also recorded: myotube cell atrophy inhibiting effect	significantly increased	decreased; also recorded: excellent inhibiting effect	decreased; also recorded: excellent inhibiting effect	the reduction was suppressed

From US12661369B2, “Muscular atrophy inhibitor and method for inhibiting muscular atrophy” (YAMASA CORPORATION, priority 2020, dated 2026)
